Among the targets are UniProt Q9H0K1; UniProt P17252; ABL2 (UniProt P42684); UniProt Q9NSY1; UniProt Q16659; UniProt P23443; TAOK3 (UniProt Q9H2K8).
Common to all, as to assay: pIC50, kinobeads binding competition
Common to all, as to settings: cell material: Jurkat lysate

For a further assay, the target named is T1, UniProt O43318.
T1 sequence (whole entry): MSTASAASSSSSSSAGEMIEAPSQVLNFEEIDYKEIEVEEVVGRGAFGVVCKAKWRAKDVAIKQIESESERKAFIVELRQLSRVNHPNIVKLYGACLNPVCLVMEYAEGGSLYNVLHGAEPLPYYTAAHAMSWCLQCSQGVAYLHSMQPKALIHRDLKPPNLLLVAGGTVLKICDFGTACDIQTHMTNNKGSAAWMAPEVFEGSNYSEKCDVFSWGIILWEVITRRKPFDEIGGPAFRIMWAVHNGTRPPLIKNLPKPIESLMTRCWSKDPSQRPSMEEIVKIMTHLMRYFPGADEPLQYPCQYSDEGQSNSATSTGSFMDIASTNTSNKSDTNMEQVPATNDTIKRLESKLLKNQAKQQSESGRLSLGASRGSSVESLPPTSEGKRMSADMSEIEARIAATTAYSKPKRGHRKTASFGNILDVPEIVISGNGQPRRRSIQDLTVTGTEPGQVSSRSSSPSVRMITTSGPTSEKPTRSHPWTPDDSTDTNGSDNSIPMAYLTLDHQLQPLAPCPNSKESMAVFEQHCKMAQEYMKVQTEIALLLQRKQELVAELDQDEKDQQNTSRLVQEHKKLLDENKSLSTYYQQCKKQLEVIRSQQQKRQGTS

The target of the next assay is T2, BRSK1 (UniProt Q8TDC3).
T2 sequence (whole entry): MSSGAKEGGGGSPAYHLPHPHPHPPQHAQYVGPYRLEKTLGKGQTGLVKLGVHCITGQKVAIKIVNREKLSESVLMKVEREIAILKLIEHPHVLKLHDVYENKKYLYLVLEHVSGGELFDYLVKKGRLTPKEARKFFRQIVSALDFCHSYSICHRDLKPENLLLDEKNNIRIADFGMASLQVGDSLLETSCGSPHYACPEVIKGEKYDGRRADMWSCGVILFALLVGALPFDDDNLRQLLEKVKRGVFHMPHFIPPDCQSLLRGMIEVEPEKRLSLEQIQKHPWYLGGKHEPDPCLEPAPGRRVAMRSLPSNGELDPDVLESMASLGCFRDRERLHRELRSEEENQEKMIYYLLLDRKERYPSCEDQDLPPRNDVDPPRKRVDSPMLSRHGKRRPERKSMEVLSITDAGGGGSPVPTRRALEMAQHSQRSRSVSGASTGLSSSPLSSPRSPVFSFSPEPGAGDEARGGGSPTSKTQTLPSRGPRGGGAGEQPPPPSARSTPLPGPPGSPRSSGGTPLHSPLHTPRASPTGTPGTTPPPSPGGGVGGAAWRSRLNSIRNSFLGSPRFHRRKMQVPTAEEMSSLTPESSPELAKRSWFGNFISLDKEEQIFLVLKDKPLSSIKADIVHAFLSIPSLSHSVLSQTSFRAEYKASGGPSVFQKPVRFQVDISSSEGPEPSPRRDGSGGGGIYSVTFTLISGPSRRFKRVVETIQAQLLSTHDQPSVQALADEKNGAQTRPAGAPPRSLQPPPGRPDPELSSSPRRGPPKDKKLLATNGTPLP

Another assay addresses T3, UniProt Q8TF76.
T3 sequence (whole entry): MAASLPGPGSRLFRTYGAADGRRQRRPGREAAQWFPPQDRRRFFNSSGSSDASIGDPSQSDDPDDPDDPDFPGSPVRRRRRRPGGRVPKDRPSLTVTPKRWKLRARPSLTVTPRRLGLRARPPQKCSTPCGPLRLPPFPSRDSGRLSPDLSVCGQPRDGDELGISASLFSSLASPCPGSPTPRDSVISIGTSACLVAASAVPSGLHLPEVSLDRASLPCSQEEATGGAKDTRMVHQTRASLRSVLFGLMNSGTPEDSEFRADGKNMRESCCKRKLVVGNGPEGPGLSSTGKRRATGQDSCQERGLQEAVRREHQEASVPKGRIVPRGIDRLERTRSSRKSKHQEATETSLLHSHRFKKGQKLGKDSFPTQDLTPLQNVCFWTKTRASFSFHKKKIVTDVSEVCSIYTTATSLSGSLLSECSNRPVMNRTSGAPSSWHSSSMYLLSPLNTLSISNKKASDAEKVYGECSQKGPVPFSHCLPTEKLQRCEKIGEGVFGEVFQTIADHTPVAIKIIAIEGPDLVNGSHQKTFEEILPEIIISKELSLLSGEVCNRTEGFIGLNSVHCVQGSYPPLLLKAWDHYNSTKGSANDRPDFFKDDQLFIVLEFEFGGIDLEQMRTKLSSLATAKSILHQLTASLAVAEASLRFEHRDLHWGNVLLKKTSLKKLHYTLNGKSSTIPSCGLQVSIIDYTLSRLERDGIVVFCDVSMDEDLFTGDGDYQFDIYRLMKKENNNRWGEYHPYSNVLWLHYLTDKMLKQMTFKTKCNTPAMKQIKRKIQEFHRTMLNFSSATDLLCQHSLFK

A further assay addresses T4, PKMYT1 (UniProt Q99640).
T4 sequence (whole entry): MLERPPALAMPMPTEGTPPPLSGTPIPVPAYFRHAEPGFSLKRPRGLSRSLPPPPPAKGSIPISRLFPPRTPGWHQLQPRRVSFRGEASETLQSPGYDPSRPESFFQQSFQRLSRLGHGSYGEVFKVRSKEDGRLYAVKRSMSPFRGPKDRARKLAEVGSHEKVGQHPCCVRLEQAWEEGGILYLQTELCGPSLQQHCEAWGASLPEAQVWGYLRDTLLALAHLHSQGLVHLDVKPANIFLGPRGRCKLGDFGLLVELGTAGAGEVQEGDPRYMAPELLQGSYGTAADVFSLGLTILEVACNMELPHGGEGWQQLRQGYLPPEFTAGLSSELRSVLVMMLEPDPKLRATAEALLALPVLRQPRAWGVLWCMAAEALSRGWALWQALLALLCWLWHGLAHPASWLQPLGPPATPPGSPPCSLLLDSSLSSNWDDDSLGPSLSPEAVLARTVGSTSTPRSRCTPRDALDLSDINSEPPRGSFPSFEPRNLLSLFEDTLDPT

The structures appear in SMILES notation. ± gives the standard deviation of the averaged measurements.

UniProt Q9NSY1, sequence (Q9NSY1 whole entry, looked up): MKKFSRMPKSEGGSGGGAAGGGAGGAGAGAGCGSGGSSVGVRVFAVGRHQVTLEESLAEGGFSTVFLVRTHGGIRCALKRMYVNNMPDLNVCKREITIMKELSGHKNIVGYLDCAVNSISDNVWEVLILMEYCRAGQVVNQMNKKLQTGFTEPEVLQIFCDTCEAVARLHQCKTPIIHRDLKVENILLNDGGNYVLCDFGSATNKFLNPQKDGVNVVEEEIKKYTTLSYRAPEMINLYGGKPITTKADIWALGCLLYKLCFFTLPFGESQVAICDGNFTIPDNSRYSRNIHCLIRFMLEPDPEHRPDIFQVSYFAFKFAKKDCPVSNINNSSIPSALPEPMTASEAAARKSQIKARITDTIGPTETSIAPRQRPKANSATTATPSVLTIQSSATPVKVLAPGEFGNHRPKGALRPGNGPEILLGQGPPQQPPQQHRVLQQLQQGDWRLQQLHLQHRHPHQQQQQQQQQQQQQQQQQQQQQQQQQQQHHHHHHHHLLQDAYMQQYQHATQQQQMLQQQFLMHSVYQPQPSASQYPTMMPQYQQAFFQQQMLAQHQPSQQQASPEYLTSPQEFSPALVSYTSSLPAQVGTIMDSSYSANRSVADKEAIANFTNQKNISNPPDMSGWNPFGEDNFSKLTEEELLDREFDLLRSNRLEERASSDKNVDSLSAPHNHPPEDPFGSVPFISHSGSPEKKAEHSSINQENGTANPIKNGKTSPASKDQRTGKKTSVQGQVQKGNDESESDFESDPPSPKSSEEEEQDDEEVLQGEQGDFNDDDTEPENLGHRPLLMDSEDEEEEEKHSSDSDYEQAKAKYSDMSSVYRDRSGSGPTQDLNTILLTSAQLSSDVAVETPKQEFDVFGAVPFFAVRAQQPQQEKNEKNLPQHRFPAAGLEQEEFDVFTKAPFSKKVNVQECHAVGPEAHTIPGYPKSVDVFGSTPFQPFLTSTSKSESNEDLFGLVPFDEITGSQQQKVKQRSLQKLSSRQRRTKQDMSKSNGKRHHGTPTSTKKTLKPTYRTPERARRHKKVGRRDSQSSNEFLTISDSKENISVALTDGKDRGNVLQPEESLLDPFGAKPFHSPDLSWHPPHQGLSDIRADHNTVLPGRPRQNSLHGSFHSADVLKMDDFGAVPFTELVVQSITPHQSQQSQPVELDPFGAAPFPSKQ
UniProt P23443, sequence (P23443 whole entry, looked up): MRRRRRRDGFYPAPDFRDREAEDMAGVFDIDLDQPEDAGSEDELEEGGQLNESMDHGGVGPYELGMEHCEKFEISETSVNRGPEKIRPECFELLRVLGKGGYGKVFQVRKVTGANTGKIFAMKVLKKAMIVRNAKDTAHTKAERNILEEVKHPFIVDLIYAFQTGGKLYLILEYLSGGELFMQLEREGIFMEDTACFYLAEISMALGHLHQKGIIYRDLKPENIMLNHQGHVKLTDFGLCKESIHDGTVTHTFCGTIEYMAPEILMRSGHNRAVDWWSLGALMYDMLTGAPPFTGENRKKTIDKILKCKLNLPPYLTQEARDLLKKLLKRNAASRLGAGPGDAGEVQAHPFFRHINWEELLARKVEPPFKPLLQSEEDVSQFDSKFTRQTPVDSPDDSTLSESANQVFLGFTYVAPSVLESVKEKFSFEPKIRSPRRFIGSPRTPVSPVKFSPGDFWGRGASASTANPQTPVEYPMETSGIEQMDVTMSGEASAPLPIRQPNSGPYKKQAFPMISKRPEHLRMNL
UniProt Q9H0K1, sequence (Q9H0K1 whole entry, looked up): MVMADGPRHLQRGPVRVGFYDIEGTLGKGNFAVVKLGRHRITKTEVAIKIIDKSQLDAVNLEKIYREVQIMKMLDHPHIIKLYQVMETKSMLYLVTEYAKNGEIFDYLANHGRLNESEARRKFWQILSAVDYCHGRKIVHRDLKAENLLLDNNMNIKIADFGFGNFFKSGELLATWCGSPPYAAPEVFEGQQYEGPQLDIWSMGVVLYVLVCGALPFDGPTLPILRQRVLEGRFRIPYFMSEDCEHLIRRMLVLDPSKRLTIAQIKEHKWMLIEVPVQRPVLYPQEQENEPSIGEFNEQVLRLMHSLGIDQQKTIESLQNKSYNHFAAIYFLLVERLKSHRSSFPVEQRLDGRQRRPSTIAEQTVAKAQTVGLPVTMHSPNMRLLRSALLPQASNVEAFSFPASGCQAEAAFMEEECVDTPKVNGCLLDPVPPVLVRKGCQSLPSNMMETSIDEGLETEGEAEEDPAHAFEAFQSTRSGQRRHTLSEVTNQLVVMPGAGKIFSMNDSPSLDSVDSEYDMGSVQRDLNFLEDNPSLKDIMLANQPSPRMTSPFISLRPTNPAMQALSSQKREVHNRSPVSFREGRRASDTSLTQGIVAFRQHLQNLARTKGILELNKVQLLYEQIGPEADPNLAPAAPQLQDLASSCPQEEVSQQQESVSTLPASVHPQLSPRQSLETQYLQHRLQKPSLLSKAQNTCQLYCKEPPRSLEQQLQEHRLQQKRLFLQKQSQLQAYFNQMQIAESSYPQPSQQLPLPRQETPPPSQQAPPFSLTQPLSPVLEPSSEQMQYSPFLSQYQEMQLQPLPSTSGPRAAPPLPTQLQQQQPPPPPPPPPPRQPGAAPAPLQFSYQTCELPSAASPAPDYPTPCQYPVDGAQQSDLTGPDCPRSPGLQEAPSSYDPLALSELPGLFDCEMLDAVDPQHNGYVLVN
ABL2, sequence (P42684 whole entry): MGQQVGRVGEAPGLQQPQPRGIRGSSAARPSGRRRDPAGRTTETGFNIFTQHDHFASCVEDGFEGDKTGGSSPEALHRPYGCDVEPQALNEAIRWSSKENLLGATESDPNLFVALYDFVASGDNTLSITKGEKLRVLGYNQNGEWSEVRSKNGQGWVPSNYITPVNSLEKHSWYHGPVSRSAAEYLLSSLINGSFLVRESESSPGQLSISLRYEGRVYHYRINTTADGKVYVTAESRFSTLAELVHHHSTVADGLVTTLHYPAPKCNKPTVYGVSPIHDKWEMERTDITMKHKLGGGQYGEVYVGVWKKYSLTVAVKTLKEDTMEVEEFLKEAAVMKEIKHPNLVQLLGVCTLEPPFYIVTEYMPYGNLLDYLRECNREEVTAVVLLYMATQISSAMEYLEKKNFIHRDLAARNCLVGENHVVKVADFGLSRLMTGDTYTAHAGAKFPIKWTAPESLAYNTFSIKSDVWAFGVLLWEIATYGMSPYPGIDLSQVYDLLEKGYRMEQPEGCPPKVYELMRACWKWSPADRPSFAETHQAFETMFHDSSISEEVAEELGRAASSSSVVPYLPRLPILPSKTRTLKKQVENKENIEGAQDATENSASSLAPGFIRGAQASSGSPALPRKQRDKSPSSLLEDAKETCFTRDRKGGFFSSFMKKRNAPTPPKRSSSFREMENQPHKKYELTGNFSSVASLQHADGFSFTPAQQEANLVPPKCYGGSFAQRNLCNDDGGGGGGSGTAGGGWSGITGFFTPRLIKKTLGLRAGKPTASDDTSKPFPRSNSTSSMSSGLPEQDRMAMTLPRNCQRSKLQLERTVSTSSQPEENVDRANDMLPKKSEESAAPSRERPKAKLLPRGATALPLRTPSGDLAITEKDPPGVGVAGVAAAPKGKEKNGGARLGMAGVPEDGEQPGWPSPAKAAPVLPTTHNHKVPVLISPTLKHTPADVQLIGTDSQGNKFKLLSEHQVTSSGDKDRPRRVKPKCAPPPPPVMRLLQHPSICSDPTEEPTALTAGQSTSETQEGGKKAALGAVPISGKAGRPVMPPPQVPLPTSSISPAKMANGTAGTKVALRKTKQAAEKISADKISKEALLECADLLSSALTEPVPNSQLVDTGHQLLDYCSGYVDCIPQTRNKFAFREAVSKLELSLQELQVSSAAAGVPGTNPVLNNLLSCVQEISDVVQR

Take `CCc1cnn2c(NCc3ccc[n+]([O-])c3)cc(N3CCCC[C@H]3CCO)nc12` [dinaciclib]: the pIC50 at UniProt Q9H0K1, at UniProt P17252, on UniProt O43318, at BRSK1, at ABL2 and at UniProt Q9NSY1 was < 4.52 each time. Moreover, the pIC50 at UniProt Q16659 was < 4.52; at UniProt P23443 it was < 4.52; at UniProt Q8TF76, < 4.52; on TAOK3, 5.79 ± 0.13; at PKMYT1 it was < 4.52.

What is called pIC50 is the negative decadic logarithm of the IC50, by convention in mol/L. Read a low pIC50 as a large IC50.

Values taken from the supplement of paper PMC12076712.
